Results taken from patent US6100237A, “Use of des-Aspartate-angiotensin I as an agent for the treatment and prevention of neointima formation, restenosis, and arteriosclerosis” (National University of Singapore, priority 1997, dated 2000).
No end group written: not given here.

Test system: spontaneously hypertensive rat (SHR)
Assay: Chronic development of arteriosclerosis (abdominal aorta morphometry, tail cuff blood pressure), chronic oral administration, SHR
Format: in vivo, spontaneously hypertensive rats (SHR)
Settings: 0.9 mg/kg/day oral; weight taken at 12, 27 and 47 weeks old (data not shown)
Experimental: Five weeks old WKY and SHR were housed four to a cage. Four SHR and four WKY were orally administered 0.9 mg/kg/day of des-Aspartate-angiotensin I in 0.5 ml of saline daily for 47 weeks. Four SHR and another four WKY served as control animals and were administered 0.5 ml saline solution daily for 47 weeks. The weight of the animals were determined weekly till 12 weeks old, fortnightly till 27 weeks old and monthly till 47 weeks old. The dose of des-Aspartate-angiotensin I was adjusted to match the increase in weight as the animals grew. The dose of 0.9 mg/kg/day was calculated based on the maximum effective oral anti-cardiac hypertrophic dose (250 nmole per rat of average weight of 325 g) in the previous patent.
The blood pressure of the animals was determined by the tail cuff method on the 46th week of treatment. On the 47th week, animals were anaesthetized with chloral hydrate and a 3-cm section (measured from the left renal artery) of the abdominal aorta was removed and fixed in 4% paraformaldehyde and 1% glutaraldehyde. The aorta was processed for paraffin embedment. 10-μ thick sections were prepared and stained with toluidine blue. Fifty such sections, cut from the distal end of the artery, were used for quantitation. The area of the medial smooth muscle cells was quantitated morphometrically as described above. The area was converted to volume by multiplying by 10μ.

RVYIHPFHL [des-Aspartate-angiotensin I]
animal weight: no significant effect
